Measured values as given in US9527869B2, “Indolizine derivatives as phoshoinositide 3-kinases inhibitors” (CHIESI FARMACEUTICI S.P.A., priority 2014, dated 2016).
Counter-ions that a name gives are not always drawn.

Columns and labels:
Assay type in all cases: biochemical
PI3Kα = molecular target: T1, PI3Kα (Homo sapiens, UniProt P42336); test: In vitro determination of the PI3K enzyme inhibitory activity in the cell free assay (ADP-Glo Kinase Assay), PI3Kα; conditions: ATP 50 μM, read-out: PI3K alpha inhibition
T1 construct: purchased Millipore Ltd (Billerica, Mass.)
In short: (§1)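 Human recombinant PI3K isoforms with PI/PS lipid substrates (50 μM in 2× buffer, Tris pH 7.5, DTT) were run 60 min at room temperature. Final ATP was 50 μM for α, 100 μM for β, 30 μM for γ and 80 μM for δ. ADP formation was read by ADP-Glo luminescence, and IC50 came from a four-parameter logistic fit.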

PI3Kβ = molecular target: T2, PI3Kβ (Homo sapiens, UniProt P42338); test: In vitro determination of the PI3K enzyme inhibitory activity in the cell free assay (ADP-Glo Kinase Assay), PI3Kβ; conditions: ATP 100 μM, read-out: PI3K beta inhibition
T2 construct: purchased Millipore Ltd (Billerica, Mass.)
In short: as §1

PI3Kγ = molecular target: T3, PI3Kγ (Homo sapiens, UniProt P48736); test: In vitro determination of the PI3K enzyme inhibitory activity in the cell free assay (ADP-Glo Kinase Assay), PI3Kγ; conditions: ATP 30 μM, read-out: PI3K gamma inhibition
T3 construct: purchased Millipore Ltd (Billerica, Mass.)
In short: as §1

PI3Kδ = molecular target: T4, PI3Kδ (Homo sapiens, UniProt O00329); test: In vitro determination of the PI3K enzyme inhibitory activity in the cell free assay (ADP-Glo Kinase Assay), PI3Kδ; conditions: ATP 80 μM, read-out: PI3K delta inhibition
T4 construct: purchased Millipore Ltd (Billerica, Mass.)
In short: as §1

T1 sequence (P42336 whole entry): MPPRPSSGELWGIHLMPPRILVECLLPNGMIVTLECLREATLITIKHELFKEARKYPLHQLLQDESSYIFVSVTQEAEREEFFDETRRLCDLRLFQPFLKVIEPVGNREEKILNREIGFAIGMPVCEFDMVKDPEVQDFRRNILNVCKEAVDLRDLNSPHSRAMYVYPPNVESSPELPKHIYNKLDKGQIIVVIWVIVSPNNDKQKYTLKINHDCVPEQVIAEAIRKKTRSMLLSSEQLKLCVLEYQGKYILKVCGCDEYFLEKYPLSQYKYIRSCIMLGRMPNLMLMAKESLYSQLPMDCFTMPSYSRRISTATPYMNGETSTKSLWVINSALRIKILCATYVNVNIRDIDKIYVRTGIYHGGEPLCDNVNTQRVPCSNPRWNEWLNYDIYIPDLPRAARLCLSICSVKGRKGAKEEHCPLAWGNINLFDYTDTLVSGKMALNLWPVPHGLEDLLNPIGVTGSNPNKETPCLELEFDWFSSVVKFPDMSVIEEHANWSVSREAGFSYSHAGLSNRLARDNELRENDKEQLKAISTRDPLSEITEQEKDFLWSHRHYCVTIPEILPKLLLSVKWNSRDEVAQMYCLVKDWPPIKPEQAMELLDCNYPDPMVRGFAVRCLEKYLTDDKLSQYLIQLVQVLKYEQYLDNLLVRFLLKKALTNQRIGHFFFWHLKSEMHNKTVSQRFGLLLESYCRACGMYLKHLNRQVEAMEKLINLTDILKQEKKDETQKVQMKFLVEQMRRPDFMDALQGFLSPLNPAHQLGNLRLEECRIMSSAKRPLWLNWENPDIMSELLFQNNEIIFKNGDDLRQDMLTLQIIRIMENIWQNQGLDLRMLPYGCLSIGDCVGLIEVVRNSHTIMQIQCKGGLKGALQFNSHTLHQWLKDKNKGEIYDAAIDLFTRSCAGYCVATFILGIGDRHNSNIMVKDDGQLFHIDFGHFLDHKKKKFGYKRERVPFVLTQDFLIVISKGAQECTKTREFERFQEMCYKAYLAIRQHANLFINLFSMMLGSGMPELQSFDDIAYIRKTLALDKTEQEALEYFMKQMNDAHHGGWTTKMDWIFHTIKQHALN
T1 sequence (P27986 whole entry partner): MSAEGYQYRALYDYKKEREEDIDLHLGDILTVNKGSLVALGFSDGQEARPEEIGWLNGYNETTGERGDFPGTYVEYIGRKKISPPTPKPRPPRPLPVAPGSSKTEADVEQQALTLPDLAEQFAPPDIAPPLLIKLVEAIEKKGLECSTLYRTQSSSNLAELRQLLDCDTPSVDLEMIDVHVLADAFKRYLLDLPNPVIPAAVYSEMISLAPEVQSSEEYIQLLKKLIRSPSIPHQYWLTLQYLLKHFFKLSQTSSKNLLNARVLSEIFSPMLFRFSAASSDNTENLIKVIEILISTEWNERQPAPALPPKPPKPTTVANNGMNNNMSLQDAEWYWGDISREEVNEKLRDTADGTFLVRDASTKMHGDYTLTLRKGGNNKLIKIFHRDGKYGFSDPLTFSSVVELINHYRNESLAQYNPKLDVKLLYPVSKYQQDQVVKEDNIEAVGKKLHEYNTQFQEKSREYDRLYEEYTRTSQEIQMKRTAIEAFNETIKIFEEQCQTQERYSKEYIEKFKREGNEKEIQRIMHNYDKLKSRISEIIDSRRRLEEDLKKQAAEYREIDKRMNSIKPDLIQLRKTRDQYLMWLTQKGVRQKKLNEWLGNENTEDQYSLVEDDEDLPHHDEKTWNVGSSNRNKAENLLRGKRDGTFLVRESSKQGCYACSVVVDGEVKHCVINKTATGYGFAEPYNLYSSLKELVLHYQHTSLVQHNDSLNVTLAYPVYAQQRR
T4 sequence (O00329 whole entry): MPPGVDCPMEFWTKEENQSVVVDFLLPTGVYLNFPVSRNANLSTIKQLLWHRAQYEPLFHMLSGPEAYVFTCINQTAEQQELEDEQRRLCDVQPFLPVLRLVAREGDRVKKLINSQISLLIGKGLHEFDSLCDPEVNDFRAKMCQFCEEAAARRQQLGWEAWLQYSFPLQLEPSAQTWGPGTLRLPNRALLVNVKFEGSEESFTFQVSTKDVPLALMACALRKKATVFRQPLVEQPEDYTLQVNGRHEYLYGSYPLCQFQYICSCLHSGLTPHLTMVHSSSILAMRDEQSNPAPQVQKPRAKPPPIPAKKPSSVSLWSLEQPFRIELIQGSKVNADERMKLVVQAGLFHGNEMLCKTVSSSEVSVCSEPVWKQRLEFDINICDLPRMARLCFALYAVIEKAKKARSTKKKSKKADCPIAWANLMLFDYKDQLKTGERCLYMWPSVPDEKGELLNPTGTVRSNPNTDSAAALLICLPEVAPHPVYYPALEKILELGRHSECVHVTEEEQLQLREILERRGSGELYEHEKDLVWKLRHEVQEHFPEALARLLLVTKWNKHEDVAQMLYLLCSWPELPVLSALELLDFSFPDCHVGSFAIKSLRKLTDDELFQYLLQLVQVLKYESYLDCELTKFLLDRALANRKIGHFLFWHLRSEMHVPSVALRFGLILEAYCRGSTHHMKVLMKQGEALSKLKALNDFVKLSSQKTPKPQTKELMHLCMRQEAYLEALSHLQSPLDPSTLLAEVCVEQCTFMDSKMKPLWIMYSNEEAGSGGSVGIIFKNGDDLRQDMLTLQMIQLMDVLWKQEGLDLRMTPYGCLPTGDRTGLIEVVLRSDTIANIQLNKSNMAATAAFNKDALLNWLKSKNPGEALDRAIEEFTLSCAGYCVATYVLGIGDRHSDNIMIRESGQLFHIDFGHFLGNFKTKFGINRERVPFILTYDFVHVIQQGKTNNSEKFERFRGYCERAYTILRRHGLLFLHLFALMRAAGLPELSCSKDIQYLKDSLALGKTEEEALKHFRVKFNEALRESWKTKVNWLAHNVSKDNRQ
T4 sequence (P27986 whole entry partner): as the sequence (P27986 whole entry partner) above
T2 sequence (P42338 whole entry): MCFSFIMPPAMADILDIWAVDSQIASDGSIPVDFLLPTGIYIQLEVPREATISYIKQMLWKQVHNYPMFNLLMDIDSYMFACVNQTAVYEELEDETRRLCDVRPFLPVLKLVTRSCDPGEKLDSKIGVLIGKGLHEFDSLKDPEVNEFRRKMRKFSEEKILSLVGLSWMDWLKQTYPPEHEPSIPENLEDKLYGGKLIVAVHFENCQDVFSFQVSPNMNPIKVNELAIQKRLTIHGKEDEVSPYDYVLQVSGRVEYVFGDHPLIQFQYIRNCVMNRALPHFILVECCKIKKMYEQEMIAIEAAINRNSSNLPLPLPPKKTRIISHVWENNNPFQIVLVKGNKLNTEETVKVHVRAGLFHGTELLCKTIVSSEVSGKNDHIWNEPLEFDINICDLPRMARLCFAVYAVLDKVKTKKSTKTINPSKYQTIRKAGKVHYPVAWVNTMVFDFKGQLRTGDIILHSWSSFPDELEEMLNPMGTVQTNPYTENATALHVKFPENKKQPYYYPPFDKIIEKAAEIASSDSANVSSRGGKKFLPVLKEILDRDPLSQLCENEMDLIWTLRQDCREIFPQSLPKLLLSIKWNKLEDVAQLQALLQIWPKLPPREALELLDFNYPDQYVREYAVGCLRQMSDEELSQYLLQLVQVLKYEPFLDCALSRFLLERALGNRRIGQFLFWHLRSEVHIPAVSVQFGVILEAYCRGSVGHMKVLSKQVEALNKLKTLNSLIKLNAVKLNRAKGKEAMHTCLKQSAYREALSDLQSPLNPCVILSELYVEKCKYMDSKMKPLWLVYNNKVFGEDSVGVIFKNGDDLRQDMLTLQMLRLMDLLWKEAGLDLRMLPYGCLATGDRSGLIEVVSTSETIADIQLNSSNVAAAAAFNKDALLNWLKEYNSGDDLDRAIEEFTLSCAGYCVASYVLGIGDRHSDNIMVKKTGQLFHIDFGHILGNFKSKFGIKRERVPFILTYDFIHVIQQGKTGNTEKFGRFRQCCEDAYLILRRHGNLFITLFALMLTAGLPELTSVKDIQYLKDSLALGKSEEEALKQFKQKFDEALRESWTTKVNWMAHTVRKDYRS
T2 sequence (P27986 whole entry partner): as the sequence (P27986 whole entry partner) above
T3 sequence (P48736 whole entry): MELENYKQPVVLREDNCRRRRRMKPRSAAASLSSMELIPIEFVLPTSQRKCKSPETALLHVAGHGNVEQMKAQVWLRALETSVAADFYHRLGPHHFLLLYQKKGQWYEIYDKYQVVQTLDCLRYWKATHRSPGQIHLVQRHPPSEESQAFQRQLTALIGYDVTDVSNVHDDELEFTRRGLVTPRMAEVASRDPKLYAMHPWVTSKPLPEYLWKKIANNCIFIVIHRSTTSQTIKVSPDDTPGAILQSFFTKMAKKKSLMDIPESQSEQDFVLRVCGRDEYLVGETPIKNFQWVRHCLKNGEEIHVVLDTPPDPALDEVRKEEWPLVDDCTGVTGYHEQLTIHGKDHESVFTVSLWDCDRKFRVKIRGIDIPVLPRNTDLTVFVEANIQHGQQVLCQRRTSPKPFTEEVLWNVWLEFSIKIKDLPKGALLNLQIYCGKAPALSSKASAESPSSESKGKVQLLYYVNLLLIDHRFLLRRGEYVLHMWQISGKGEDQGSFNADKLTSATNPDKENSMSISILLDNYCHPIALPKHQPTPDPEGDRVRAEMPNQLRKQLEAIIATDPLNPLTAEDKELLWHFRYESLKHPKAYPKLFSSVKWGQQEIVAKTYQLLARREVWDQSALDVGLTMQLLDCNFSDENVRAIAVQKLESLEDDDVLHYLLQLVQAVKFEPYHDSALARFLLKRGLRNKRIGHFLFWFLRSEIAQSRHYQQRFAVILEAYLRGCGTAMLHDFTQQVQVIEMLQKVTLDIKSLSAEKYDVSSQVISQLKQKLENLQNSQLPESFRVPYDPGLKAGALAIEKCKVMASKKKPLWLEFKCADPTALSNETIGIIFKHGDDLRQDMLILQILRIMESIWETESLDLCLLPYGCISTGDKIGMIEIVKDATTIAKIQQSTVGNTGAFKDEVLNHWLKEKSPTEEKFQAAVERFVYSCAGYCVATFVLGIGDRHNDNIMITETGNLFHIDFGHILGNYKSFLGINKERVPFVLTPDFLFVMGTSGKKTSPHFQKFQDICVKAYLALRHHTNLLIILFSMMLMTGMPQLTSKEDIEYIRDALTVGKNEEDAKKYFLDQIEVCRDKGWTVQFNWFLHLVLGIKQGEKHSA

IC50 (PI3Kα) [µM] | IC50 (PI3Kβ) [µM] | IC50 (PI3Kγ) [µM] | IC50 (PI3Kδ) [µM] | Compound
> 1 | > 1 | > 1 | 0.01 to 1 | Cc1cccn2c(-c3ccccn3)c(C(C)Nc3ncnc(N)c3C#N)cc12 (centres unmarked) [Example 41, 4-amino-6-({1-[8-methyl-3-(pyridin-2-yl)indolizin-2-yl]ethyl}amino)pyrimidine-5-carbonitrile]
> 1 | > 1 | > 1 | > 1 | CC(Nc1ncnc(N)c1C(=O)O)c1cc2ccccn2c1-c1ccccn1 (centres unmarked) [Example 53, 4-amino-6-({1-[3-(pyridin-2-yl)indolizin-2-yl]ethyl}amino)pyrimidine-5-carboxylic acid formate]
> 1 | 0.01 to 1 | > 1 | < 0.01 | CC(c1cc2ccccn2c1-c1ccccc1C#N)n1nc(-c2cc(O)cc(F)c2)c2c(N)ncnc21 (centres unmarked) [Example 123, 2-(2-{1-[4-amino-3-(3-fluoro-5-hydroxyphenyl)-1H-pyrazolo[3,4-d]pyrimidin-1-yl]-ethyl}indolizin-3-yl)benzonitrile]
> 1 | > 1 | > 1 | > 1 | CC(Nc1ncnc(N)c1CN1CCOCC1)c1cc2ccccn2c1-c1ccccn1 (centres unmarked) [Example 57, 5-(morpholin-4-ylmethyl)-4-N-{1-[3-(pyridin-2-yl)indolizin-2-yl]ethyl}pyrimidine-4,6-diamine]
> 1 | > 1 | > 1 | > 1 | N#Cc1c(N)ncnc1NCc1cn2ccccc2c1-c1ccccc1 [Example 27, 4-amino-6-{[(1-phenylindolizin-2-yl)methyl]amino}pyrimidine-5-carbonitrile]
0.01 to 1 | 0.01 to 1 | 0.01 to 1 | < 0.01 | CC(c1cc2ccccn2c1CN1CCOCC1)n1nc(-c2cc(O)cc(F)c2)c2c(N)ncnc21 (centres unmarked) [Example 141, 3-(4-amino-1-{1-[3-(morpholin-4-ylmethyl)indolizin-2-yl]ethyl}-1H-pyrazolo[3,4-d]-pyrimidin-3-yl)-5-fluorophenol]
> 1 | > 1 | > 1 | > 1 | Cc1ccccc1-c1c(CNc2ncnc3[nH]cnc23)cn2ccccc12 [Example 19, N-{[1-(2-methylphenyl)indolizin-2-yl]methyl}-9H-purin-6-amine]
> 1 | 0.01 to 1 | > 1 | 0.01 to 1 | CC(c1cc2ccccn2c1-c1ccc(CN(C)C)cn1)n1nc(-c2cc(O)cc(F)c2)c2c(N)ncnc21 (centres unmarked) [Example 109, 3-{4-amino-1-[1-(3-{5-[(dimethylamino)-methyl]pyridin-2-yl}indolizin-2-yl)ethyl]-1H-pyrazolo[3,4-d]pyrimidin-3-yl}-5-fluorophenol]
0.01 to 1 | 0.01 to 1 | 0.01 to 1 | < 0.01 | CC(c1cc2ccccn2c1-c1ccn(CCN2CCN(C)CC2)n1)n1nc(-c2cc(O)cc(F)c2)c2c(N)ncnc21 (centres unmarked) [Example 148, 3-{4-amino-1-[1-(3-{1-[2-(4-methylpiperazin-1-yl)ethyl]-1H-pyrazol-3-yl}indolizin-2-yl)-ethyl]-1H-pyrazolo[3,4-d]pyrimidin-3-yl}-5-fluorophenol]
> 1 | 0.01 to 1 | > 1 | 0.01 to 1 | CC(c1cc2ccccn2c1-c1ccccn1)n1nc(-c2cc(N)cc(F)c2)c2c(N)ncnc21 (centres unmarked) [Example 76, 3-(3-amino-5-fluorophenyl)-1-{1-[3-(pyridin-2-yl)indolizin-2-yl]ethyl}-1H-pyrazolo[3,4-d]pyrimidin-4-amine]
> 1 | > 1 | > 1 | 0.01 to 1 | CC(c1cc2ccccn2c1-c1ccccn1)n1nc(-c2cccc(NS(C)(=O)=O)c2)c2c(N)ncnc21 (centres unmarked) [Example 67, N-[3-(4-amino-1-{1-[3-(pyridin-2-yl)indolizin-2-yl]ethyl}-1H-pyrazolo[3,4-d]pyrimidin-3-yl)phenyl]methanesulfonamide]
0.01 to 1 | 0.01 to 1 | 0.01 to 1 | < 0.01 | Nc1ncnc2c1c(-c1cc(O)cc(F)c1)nn2Cc1cc2ccccn2c1-c1ccncc1 [Example 99, 3-(4-amino-1-{[3-(pyridin-4-yl)indolizin-2-yl]methyl}-1H-pyrazolo[3,4-d]pyrimidin-3-yl)-5-fluorophenol]
> 1 | > 1 | > 1 | 0.01 to 1 | c1ccc(-c2c(CNc3ncnc4[nH]cnc34)cn3ccccc23)nc1 [Example 20, N-{[1-(pyridin-2-yl)indolizin-2-yl]methyl}-9H-purin-6-amine]
0.01 to 1 | 0.01 to 1 | 0.01 to 1 | < 0.01 | CC(c1cc2ccccn2c1N1CCCC1=O)n1nc(-c2cc(O)cc(F)c2)c2c(N)ncnc21 (centres unmarked) [Example 95, 1-(2-{1-[4-amino-3-(3-fluoro-5-hydroxyphenyl)-1H-pyrazolo[3,4-d]pyrimidin-1-yl]ethyl}indolizin-3-yl)pyrrolidin-2-one]
> 1 | 0.01 to 1 | > 1 | 0.01 to 1 | CC(c1cc2ccccn2c1-c1ccc(CN(C)C)cc1)n1nc(-c2cc(O)cc(F)c2)c2c(N)ncnc21 (centres unmarked) [Example 92, 3-{4-amino-1-[1-(3-{4-[(dimethylamino)methyl]phenyl}indolizin-2-yl)ethyl]-1H-pyrazolo[3,4-d]pyrimidin-3-yl}-5-fluorophenol]
0.01 to 1 | 0.01 to 1 | 0.01 to 1 | < 0.01 | C[C@H](c1cc2ccccn2c1-c1ccn(CCN2CCOCC2)c(=O)c1)n1nc(-c2cc(O)cc(F)c2)c2c(N)ncnc21 (single isomer, unassigned) [Example 121b, 4-(2-{1-[4-amino-3-(3-fluoro-5-hydroxyphenyl)-1H-pyrazolo[3,4-d]pyrimidin-1-yl]ethyl}indolizin-3-yl)-1-[2-(morpholin-4-yl)ethyl]-1,2-dihydropyridin-2-one]
> 1 | 0.01 to 1 | > 1 | < 0.01 | CC(c1cc2ccccn2c1-c1ccc(OCCN2CCN(C)CC2)nn1)n1nc(-c2cc(O)cc(F)c2)c2c(N)ncnc21 (centres unmarked) [Example 137, 3-{4-amino-1-[1-(3-{6-[2-(4-methylpiperazin-1-yl)ethoxy]pyridazin-3-yl}indolizin-2-yl)-ethyl]-1H-pyrazolo[3,4-d]pyrimidin-3-yl}-5-fluorophenol]
> 1 | 0.01 to 1 | > 1 | 0.01 to 1 | CCCC#Cc1c(C(C)Nc2ncnc(N)c2C#N)cc2ccccn12 (centres unmarked) [Example 43, 4-amino-6-({1-[3-(pent-1-yn-1-yl)indolizin-2-yl]ethyl}amino)pyrimidine-5-carbonitrile]
0.01 to 1 | 0.01 to 1 | 0.01 to 1 | < 0.01 | CC(c1cc2cc(Cl)ccn2c1-c1ccccn1)n1nc(-c2cc(O)cc(F)c2)c2c(N)ncnc21 (centres unmarked) [Example 104, 3-(4-amino-1-{1-[7-chloro-3-(pyridin-2-yl)indolizin-2-yl]ethyl}-1H-pyrazolo[3,4-d]pyrimidin-3-yl)-5-fluorophenol]
> 1 | 0.01 to 1 | 0.01 to 1 | < 0.01 | Nc1ncnc2c1c(-c1cc(O)cc(F)c1)nn2Cc1cc2cccnn2c1-c1ccccn1 [Example 100, 3-(4-amino-1-{[7-(pyridin-2-yl)pyrrolo[1,2-b]pyridazin-6-yl]methyl}-1H-pyrazolo[3,4-d]pyrimidin-3-yl)-5-fluorophenol]
> 1 | > 1 | > 1 | 0.01 to 1 | CC(Nc1ncnc(N)c1C(N)=O)c1cc2ccccn2c1-c1ccccn1 (centres unmarked) [Example 52, 4-amino-6-({1-[3-(pyridin-2-yl)indolizin-2-yl]ethyl}amino)pyrimidine-5-carboxamide]
> 1 | > 1 | > 1 | > 1 | c1ccc(-c2c(CNc3ncnc4[nH]cnc34)cc3ccccn23)cc1 [Example 13, N-[(3-phenylindolizin-2-yl)methyl]-9H-purin-6-amine]
> 1 | 0.01 to 1 | 0.01 to 1 | < 0.01 | CC(c1cc2ccccn2c1-c1csc(CN2CCOCC2)n1)n1nc(-c2cc(O)cc(F)c2)c2c(N)ncnc21 (centres unmarked) [Example 130, 3-[4-amino-1-(1-{3-[2-(morpholin-4-ylmethyl)-1,3-thiazol-4-yl]indolizin-2-yl}ethyl)-1H-pyrazolo-[3,4-d]pyrimidin-3-yl]-5-fluorophenol]
> 1 | 0.01 to 1 | 0.01 to 1 | < 0.01 | CC(c1cc2ccccn2c1-c1ccncc1)n1nc(-c2cc(O)cc(F)c2)c2c(N)ncnc21 (racemic) [Example 82, 3-(4-amino-1-{1-[3-(pyridin-4-yl)indolizin-2-yl]ethyl}-1H-pyrazolo[3,4-d]pyrimidin-3-yl)-5-fluorophenol]
> 1 | 0.01 to 1 | > 1 | < 0.01 | CC(c1cc2ccccn2c1-c1ccc(=O)n(CCN2CCCC2)n1)n1nc(-c2cc(O)cc(F)c2)c2c(N)ncnc21 (centres unmarked) [Example 134, 6-(2-{1-[4-amino-3-(3-fluoro-5-hydroxyphenyl)-1H-pyrazolo[3,4-d]pyrimidin-1-yl]-ethyl}indolizin-3-yl)-2-[2-(pyrrolidin-1-yl)-ethyl]-2,3-dihydropyridazin-3-one]

Compound | IC50 (PI3Kα) [µM] | IC50 (PI3Kβ) [µM] | IC50 (PI3Kγ) [µM] | IC50 (PI3Kδ) [µM]
CC(Nc1ncnc(N)c1C#N)c1cc2ccccn2c1C1=CCNCC1 (centres unmarked) [Example 45, 4-amino-6-({1-[3-(1,2,3,6-tetrahydropyridin-4-yl)indolizin-2-yl]ethyl}amino)pyrimidine-5-carbonitrile] | > 1 | 0.01 to 1 | > 1 | 0.01 to 1
